Data: US20230096781A1, “METHODS OF CONTROLLING BODYWEIGHT BY MODULATING PHOSPHATIDYLINOSITOL 5-PHOSPHATE 4-KINASE BETA ACTIVITY” (University of Cincinnati, priority 2020, published 2023)
Substitutions are numbered along the chain they refer to. Several values for one entry are separate records, joined by “and”; a condition that tells them apart may be missing. Identical values can stand only once.

Assays:
[1] = molecular target: T1, PI5P4Kβ (Homo sapiens, UniProt P78356); assay: NMR-based PNT hydrolysis assay; assay type: biochemical; conditions: WT PI5P4Kβ
T1 sequence (P78356 1-416): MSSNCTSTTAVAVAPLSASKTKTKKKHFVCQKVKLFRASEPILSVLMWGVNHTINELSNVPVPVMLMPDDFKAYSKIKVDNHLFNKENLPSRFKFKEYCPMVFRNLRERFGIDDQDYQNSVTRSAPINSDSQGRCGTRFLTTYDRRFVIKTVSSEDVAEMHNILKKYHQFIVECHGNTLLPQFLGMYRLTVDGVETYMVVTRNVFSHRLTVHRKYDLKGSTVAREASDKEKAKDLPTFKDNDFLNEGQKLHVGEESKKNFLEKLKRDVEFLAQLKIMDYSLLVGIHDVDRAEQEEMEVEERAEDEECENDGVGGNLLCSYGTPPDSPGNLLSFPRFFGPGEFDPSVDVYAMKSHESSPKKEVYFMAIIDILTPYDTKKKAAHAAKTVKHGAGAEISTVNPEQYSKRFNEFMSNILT
Procedure: (A) The PNT hydrolysis activity of PI5P4Kβ. indicative of the kinase activity of PI5P4Kβ. was assessed by the signal intensity ratios of diphosphorylated/triphosphorylated nucleotides after the reaction. The average values from three experiments are shown with error bars (SD). Highly hydrolyzed nucleotides (>0.1 of the ratios) were shown for GTP, ITP, XTP, 6-thio-GTP, and 2a-ATP. (B), (C), and (D) show interactions of the PI5P4Kβ-ITP, PI5P4Kβ-XTP, and PI5P4Kβ-2a-ATP complexes, respectively. Dotted lines represent hydrogen bonds between the PNTs and PI5P4Kβ.
(§1) Next, the mechanism of the GTP preference of PI5P4Kβ was investigated using a series of ATP and GTP analogs. Based on analysis of the GTP-PI5P4Kβ interaction (FIG. 10(B)), 10 PNTs with different configurations at the 2nd and 6th positions of the purine base (NH2(2) and O(6) in guanine base, respectively) were chosen (FIG. 10(A)). The hydrolysis activities of PI5P4Kβ for these PNTs were quantified by an NMR-based assay (data not shown). […] On the other hand, O(6) seems to be required for the activity. […] This view is also supported by the larger energetic contribution of the O(6) moiety compared to the NH2(2) moiety in the FMO interaction analysis between GTP and PI5P4Kβ (FIG. 15).

[2] = molecular target: T2, PI5P4KβT201M (Homo sapiens, UniProt P78356, T201M); assay: PNT hydrolysis activity of mutant PI5P4Kβ; assay type: biochemical
T2 sequence (P78356 1-416 T201M): T1 sequence (P78356 1-416) with T201M

[3] = molecular target: T3, PI5P4KβF205L (Homo sapiens, UniProt P78356, F205L); assay: PNT hydrolysis activity of mutant PI5P4Kβ; assay type: biochemical
T3 sequence (P78356 1-416 F205L): T1 sequence (P78356 1-416) with F205L
Procedure: (§2) (A)-(C) show PNT hydrolysis activity of mutant PI5P4Kβ as compared to the WT. The ratios of dephosphorylated/triphosphorylated nucleotides after reaction are shown. The N203A activity is almost negligible.
(§3) In addition, the hydrolysis activity of the mutants on four active triphosphorylated nucleotides were analyzed, XTP, ITP, 6-thio-GTP, and 2a-ATP. […] In the crystal structure of the PI5P4KβN203D-ITP complex, ITP binds in a similar manner as the WT.

[4] = molecular target: T4, PI5P4KβN203D (Homo sapiens, UniProt P78356, N203D); assay: PNT hydrolysis activity of mutant PI5P4Kβ; assay type: biochemical
T4 sequence (P78356 1-416 N203D): T1 sequence (P78356 1-416) with N203D
Procedure: as §2, §3

[5] = molecular target: T1, PI5P4Kβ; assay: Competition assay of 32P-GTP-dependent PI(5)P phosphorylation by cold PNTs; assay type: biochemical; conditions: 250 μM 32P-GTP, 3.2-400 μM cold PNT
Procedure: (A) The kinase reaction was carried out in a total of 50 μl of reaction buffer (50 mM HEPES (pH 7.4), 0.2 mM EGTA, and 10 mM MgCl2) containing 20 μM of PI(5)P (d-myo-phosphatidylinositol 5-phosphate diC16) that was suspended by sonication. 250 μM of γ-^32P radiolabeled GTP was incubated with 1 μg of recombinant PI5P4Kβ for 10 min at room temperature. 20 μM of PI(5)P was used with 3 μM 1,2-dipalmitoyl-phosphatidylserine as the basal lipid. Phosphoinositides were extracted by a methanol/chloroform (1/1, v/v) mix and subjected to a thin-layer chromatography (TLC) assay using heat-activated 2% […] silica gel 60 plates. The solvent was 1-propanol/2 M acetic acid (65/35, v/v). In competition assay, 250 μM of ^32P-labeled GTP was mixed with 3.2-400 μM triphosphorylated nucleotides, and the PI(5)P phosphorylation by GTP was monitored by quantifying the amount of radiolabeled PI(4,5)P2. (B) Relative kinase activities in the presence of each PNT against those without them (i.e., only ^32P-GTP condition) are shown.
as §1

[6] = test system: PI5P4Kβ with mutation of Asn-203; assay: Nucleotide binding of Asn-203 mutant PI5P4Kβ
Procedure: The functional role of Asn-203 was analyzed, because this is the only invariant residue in the base-recognition loop of PI4P5K and PI5P4K.

[7] = molecular target: T2, PI5P4KβT201M; conditions: T201M mutant; partly reported in Sumita et al., 2016; cited from earlier work
[8] = molecular target: T3, PI5P4KβF205L; conditions: F205L mutant; partly reported in Sumita et al., 2016; cited from earlier work
[9] = molecular target: T1, PI5P4Kβ; conditions: KM for GTP; cited from earlier work
[10] = test system: WT-PI5P4Kβ-expressing Pip4K2b^−/− cells; assay: Lysotracker staining of serum-starved MEFs (lysosomal acidification); assay type: cell-based, mouse
[11] = test system: isogenic Pip4K2b^−/− cells; assay: as above; assay type: cell-based, mouse; conditions: 10 μM MPA or 20 μM Link17
[12] = test system: WT PI5P4Kβ-reconstituted Pip4k2b^−/− cells; assay: Nigericin-induced vacuolization; assay type: cell-based, mouse; conditions: within 4h after nigericin treatment
Procedure: (§4) Next, treatment with microbial toxin nigericin, a selective K^+/H^+ exchanger that is activated in the lysosome and induces lysosome rupture and following cell death, was assessed. […] The autophagic flux in MEF, 293T, and HCT116 cells was decreased by Link17 treated cells (FIG. 7(A),(B)). In the isogenic MEFs, autophagy was decreased in Pip4k2b^−/− and F205L cells, compared to WT cells (FIG. 7(C)).

[13] = test system: Pip4k2b^−/− cells; assay: Nigericin-induced vacuolization; assay type: cell-based, mouse; conditions: within 4h after nigericin treatment
Procedure: (D) is a graph showing cytotoxic death by nigericin was suppressed in Pip4K2b^−/− cells and F205L-PI5P4Kβ-expressing Pip4K2b−/− cells.
as §4

[14] = test system: WT PI5P4Kβ-reconstituted Pip4k2b^−/− cells; assay: Cell viability after nigericin treatment; assay type: cell-based, mouse
Procedure: as §4

hydrolysis activity of PI5P4Kβ (in words) [1] | hydrolysis activity compared to WT [3] | hydrolysis activity compared to WT [4] | inhibition of GTP-dependent PI(5)P phosphorylation activity [5] | Structure (SMILES) | also measured
very low hydrolysis activity | – | – | – | Nc1nc(Cl)c2ncn(C3OC(COP(=O)(O)OP(=O)(O)OP(=O)(O)O)C(O)C3O)c2n1 (stereo not shown) [2a-6C1-PTP] | –
substantial activity | not affected | significantly reduced | – | Nc1nc(N)c2ncn([C@@H]3O[C@H](COP(=O)(O)OP(=O)(O)OP(=O)(O)O)[C@@H](O)[C@H]3O)c2n1 [2a-ATP] | hydrolysis activity compared to WT [2]: more active
substantial activity | less active | – | strongly inhibited | Nc1nc(=S)c2ncn([C@@H]3O[C@H](COP(=O)(O)OP(=O)(O)OP(=O)(O)O)[C@H](O)C3O)c2[nH]1 (stereo partly shown) [6-thio-GTP] | –
– | not affected | significantly reduced | – | Nc1ncnc2c1ncn2[C@@H]1O[C@H](COP(=O)(O)OP(=O)(O)OP(=O)(O)O)[C@@H](O)[C@H]1O [ATP] | hydrolysis activity compared to WT [2]: more active; binding of nucleotide [6]: markedly reduced the binding; nucleotide-dependent kinase activity [7]: higher ATP-dependent activity; nucleotide-dependent kinase activity [8]: comparable to that of WT PI5P4Kβ
– | less active | significantly reduced | – | Nc1nc2c(ncn2[C@@H]2O[C@H](COP(=O)(O)OP(=O)(O)OP(=O)(O)O)[C@@H](O)[C@H]2O)c(=O)[nH]1 [GTP, guanosine triphosphate] | binding of nucleotide [6]: markedly reduced the binding; Km [9]: ~100 µM and ~88 µM; nucleotide-dependent kinase activity [7]: decreased GTP-dependent kinase activity; nucleotide-dependent kinase activity [8]: reduction of the GTP-dependent activity
substantial activity | less active | hyperactive | strongly inhibited | O=P(O)(O)OP(=O)(O)OP(=O)(O)OC[C@H]1O[C@@H](n2cnc3c(O)ncnc32)[C@H](O)[C@@H]1O [ITP, inosine triphosphate] | hydrolysis activity compared to GTP [1]: 1.3 times
– | – | – | – | COc1c(C)c2c(c(O)c1C/C=C(\C)CCC(=O)O)C(=O)OC2 [MPA, mycophenolic acid] | lysosomal acidification (lysotracker staining) ([10]; 10 μM MPA or 20 μM Link17): suppressed lysosomal acidification; lysosomal acidification (lysotracker staining) ([10]; 10 μM MPA or 20 μM Link17, listed as mycophenolic acid): had a deacidification effect; lysosomal acidification (lysotracker staining) [11]: not
very low hydrolysis activity | – | – | – | COc1nc(N)nc2c1ncn2[C@@H]1O[C@H](COP(=O)(O)OP(=O)(O)OP(=O)(O)O)[C@@H](O)[C@H]1O [O6-me-GTP] | –
substantial activity | diminished susceptibility | significantly reduced | strongly inhibited | O=c1[nH]c(=O)c2ncn([C@@H]3O[C@H](COP(=O)(O)OP(=O)(O)OP(=O)(O)O)[C@@H](O)[C@H]3O)c2[nH]1 [XTP, xanthosine triphosphate] | hydrolysis activity compared to GTP [1]: 1.9 times
– | – | – | – | CO[C@@H]1C[C@@H](C[C@H]2CC[C@H](C)[C@H]([C@@H](C)C(=O)O)O2)O[C@]2(O[C@](C)([C@H]3CC[C@@](C)([C@@H]4O[C@@H]([C@H]5O[C@@](O)(CO)[C@H](C)C[C@@H]5C)C[C@@H]4C)O3)C[C@H]2C)[C@@H]1C [nigericin] | hypervacuolization after nigericin treatment [12]: hypervacuolization was observed; hypervacuolization after nigericin treatment [13]: not; cell viability [14]: decreased cell viability
